# Read-outs that look alike come from different tables or passages of the source.
# Assays:
# EcA2PfB2 [1] = molecular target: T1, EcA2PfB2 (Plasmodium falciparum, UniProt Q8I528); experiment: biochemical; format: biochemical, Plasmodium falciparum GyrB with Escherichia coli GyrA; settings: for Sensitivity of hybrid complex to known bacterial gyrase inhibitors: supercoiling, Fig. S1D and E
# Method: (§1) A supercoiling assay was utilized to test a library of compounds previously selected for binding to EcA2PfB2 but not EcGyr. The library was a kind gift from Yasumitsu Kondoh, RIKEN. The EcGyr complex was used as a control allowing selection for specific compounds that target PfB. Supercoiling assays were carried out in a buffer consisting of 35 mM Tris-HCl (pH 7.5), 24 mM KCl, 4 mM MgCl2, 2 mM DTT, 1.8 mM spermidine, 1 mM ATP, 6.5% (wt/vol) glycerol, and 0.1 mg/ml bovine serum albumin (BSA). The hybrid (EcA2PfB2) complex or EcGyr complex was formed in the storage buffer (50 mM Tris-HCl [pH 7.5], 100 mM KCl, 10% [wt/vol] glycerol, 1 mM EDTA, 2 mM DTT). In a 30-μl reaction, the gyrase complex and 0.5 μg of pBR322 relaxed DNA (Inspiralis, United Kingdom) were assembled on ice and incubated at 37°C for 30 min. The reaction was then stopped by adding an equal volume of stop solution (40% sucrose, 100 mM Tris-HCl [pH 7.5], 1 mM EDTA, 0.5 mg/ml bromophenol blue) and extracted by mixing with 30 μl chloroform-isoamyl alcohol (24:1). The samples were centrifuged at 14,000 × g for 1 min, and the aqueous phase was collected and loaded onto a 1% 1× Tris-acetate-EDTA (TAE) agarose gel. The DNA products were resolved by electrophoresis at 80 V for 120 min and visualized by UV irradiation. The images were then analyzed using ImageJ v.1.47 to obtain the intensity of the supercoiled DNA band. Gyrase with 1% dimethyl sulfoxide (DMSO) was used as the control. The percentage of supercoiled DNA (% SC) was normalized using samples with gyrase in the absence of inhibitor as the full supercoiling control and was plotted against PPG concentration. Data were fitted to the equation % SC = ae^b^[PPG], where a and b are function parameters, using OriginLab Origin (Pro) v.2020b.
# P. falciparum 3D7 [2] = settings: growth in vitro; ref [25], [33]; cited from earlier work
# EcGyr [3] = molecular target: T2, EcGyr (Escherichia coli, UniProt P0AES4+P0AES6); experiment: EMSA DNA binding, EcGyr; settings: 147 bp DNA, 200 nM complex
# T2 construct: made in house
# Method: (§2) DNA binding assays were carried out using electrophoretic mobility shift assay (EMSA) with 147 bp dsDNA (based on the preferred gyrase cleavage site from plasmid pBR322) ([31]). In brief, 20 nM DNA was mixed with 200 nM reconstituted complex (hybrid or EcGyr) or 1 μM PfB in an assay buffer (30 mM Tris-HCl [pH 7.5], 75 mM KCl, 2 mM MgCl2, 6% glycerol, 1 mM DTT) and PPG for 1 h at room temperature. The samples were resolved in a 5% polyacrylamide gel in TBM buffer (90 mM Tris-borate, pH 7.5, 4 mM MgCl2) for 1 h at 80 V. The gel was stained with SYBR gold (Thermo) and visualized under UV light.
# PfB [4] = molecular target: T3, PfB (Plasmodium falciparum, UniProt Q8I528); experiment: EMSA DNA binding, PfB; settings: 147 bp DNA, 1 μM PfB
# Method: as §2
# EcGyr [5] = molecular target: T2, EcGyr; experiment: DNA supercoiling assay, E. coli gyrase; format: biochemical; settings: relaxed pBR322, 37°C 30 min, 1% DMSO, n = 3; read-out: IC50 supercoiling inhibitory activity, EcGyr
# Method: as §1, with “Gyrase with 1% dimethyl sulfoxide (DMSO) was used as the control. The percentage of supercoiled DNA (% SC) was normalized using samples with gyrase in the absence of inhibitor as the full supercoiling control and was plotted against PPG concentration. Data were fitted to the equation % SC = ae^b^[PPG], where a and b are function parameters, using OriginLab Origin (Pro) v.2020b.” left out
# PfB [6] = molecular target: T3, PfB; experiment: ATP hydrolysis assay (malachite green), PfB; format: biochemical; settings: 1 μM PfB
# Method: (§3) The ATP hydrolysis reaction was performed as follows. Enzyme was incubated in the assay buffer (50 mM Tris-HCl [pH 7.5], 125 mM KCl, 1 mM EDTA, 5 mM MgCl2, 5 mM DTT, 10% glycerol) with test compounds at various concentrations, 1 mM ATP, and 10.5 nM linear pBR322 DNA for 30 min at room temperature. The protein concentrations used in the assay were as follows: 1 μM PfB, 0.5 μM EcA2PfB2, and 100 nM EcGyr. A malachite green assay kit (Sigma-Aldrich) was used to measure the released phosphate in the reaction. In brief, malachite green reagent was added to the reaction mixture, and the mixture was further incubated for 10 min. The formed color was measured at 620 nm using a plate reader (SpectraMAX190; Molecular Devices). The amount of released phosphate was calculated based on a calibration curve covering a linear range of 50 to 250 pmol using eight concentrations, which was prepared for each measurement independently. Experiments were carried out in triplicate.
# P. falciparum 3D7 [7] = experiment: P. falciparum growth inhibition in vitro (SYBR green); format: cell-based; settings: Plasmodium falciparum, 96 h of treatment
# Method: Tests on parasites were performed by Anti-infectives Screening Core Services at NYU School of Medicine based on previously published protocol ([44]). P. falciparum strain 3D7 was used for all determinations. Using 96-well plates, 100 μl of P. falciparum growth medium (RPMI 1640, 25 mM HEPES, 0.1 mg/ml gentamicin, 0.05 mg/liter hypoxanthine [pH 6.75]), supplemented with 0.25% sodium bicarbonate and 0.5% Albumax II (Invitrogen), was added to each well. A 10 mM stock of PPG in DMSO was then serially diluted in triplicate. DMSO at the highest concentration used (0.5%) was tested in parallel as a control. Asynchronous P. falciparum in a 100-μl volume was then added to each well at 0.25% late-stage parasitemia with 5% hematocrit, as well as controls (medium, red blood cells, P. falciparum, or P. falciparum with 2 μM chloroquine). The plates were placed in a sealed chamber and maintained under atmospheric conditions of 5% oxygen, 5% carbon dioxide, and 90% nitrogen at 37°C for 96 h. To determine the cell viability, a SYBR green assay for rapid assessment was performed.
# After incubation, plates were placed at −80°C for 24 h. The plates were then thawed at 37°C for 4 h. Once thawed, 100 μl of from each resuspended well was transferred into a black, 96-well plate. […] Plates were analyzed on a fluorescence plate reader (Victor) at excitation and emission wavelengths of 485 and 530 nm, respectively. […]
# PfB [8] = molecular target: T3, PfB; experiment: Microscale thermophoresis binding to PfB
# Method: (§4) Microscale thermophoresis (MST) experiments were performed using a Monolith NT.115 instrument (NanoTemper). Proteins (PfB and EcB) were labeled with Red 2nd Generation labeling kits (NanoTemper) in which the fluorescent red dye was coupled with protein via NHS coupling. Labeled protein (100 nM) was mixed with PPG (Activate Scientific, dissolved in DMSO to a final concentration of 5%) and in MST buffer {240 mM NaPi (pH 7.4), 274 mM NaCl, 54 mM KCl, 100 μM TCEP [Tris(2-carboxyethyl)phosphine hydrochloride], 0.05% Tween 20, 5% DMSO} and incubated in the dark for 15 min. The samples were applied onto capillaries (Monolith NT.115 MST Premium coated capillaries), and the fluorescence signal was measured using MO.Control software (Nanotemper). Initial fluorescence signal was used for binding analysis, and Kd was calculated using 1:1 binding model. Results were baseline corrected and normalized for amplitude using MO.Control software (Nanotemper). The Kd values were calculated based on three independent measurements. All experiments were performed at room temperature.
# EcA2PfB2 [9] = molecular target: T1, EcA2PfB2; experiment: EMSA DNA binding, hybrid gyrase; design: species or system Plasmodium falciparum GyrB with Escherichia coli GyrA; settings: 147 bp DNA, 200 nM complex
# Method: as §2
# EcGyr [10] = molecular target: T2, EcGyr; experiment: ATP hydrolysis assay (malachite green), EcGyr; format: biochemical; settings: 100 nM EcGyr
# Method: as §3
# EcA2PfB2 [11] = molecular target: T1, EcA2PfB2; experiment: ATP hydrolysis assay (malachite green), hybrid gyrase; format: biochemical, Plasmodium falciparum GyrB with Escherichia coli GyrA
# Method: as §3, with “Enzyme was incubated in the assay buffer (50 mM Tris-HCl [pH 7.5], 125 mM KCl, 1 mM EDTA, 5 mM MgCl2, 5 mM DTT, 10% glycerol) with test compounds at various concentrations, 1 mM ATP, and 10.5 nM linear pBR322 DNA for 30 min at room temperature.” left out
# EcB = molecular target: T4, EcB (Escherichia coli, UniProt P0AES6); experiment: Microscale thermophoresis binding to EcB; settings: 1:1 binding model, 100 nM labeled protein, 5% DMSO, room temperature; read-out: Kd for EcB (MST)
# T4 construct: made in house
# Method: as §4
# EcA2PfB2 [12] = molecular target: T1, EcA2PfB2; experiment: DNA cleavage assay; format: biochemical, Plasmodium falciparum GyrB with Escherichia coli GyrA; settings: 150 nM EcA2PfB2, supercoiled DNA, no ATP
# Method: 22 The purified proteins (2 µg) were subjected to a 10% SDS PAGE and resolved by
# 23 electrophoresis at 180 V for 40 minutes. The protein bands were visualized by Coommassie
# 26 The DNA cleavage assay was performed in the same buffer conditions as for
# 27 supercoiling but ATP was omitted and supercoiled DNA was used instead of relaxed DNA.
# 28 EcA2PfB2 complex (150 nM) was incubated with 0.5 µg of supercoiled DNA in the
# 29 absence/presence of inhibitors for 60 min at 37 °C. In order to monitor the production of
# 30 linearized DNA, protein was removed by addition of 3 µl of 2% SDS and 1 µl of proteinase K
# 31 (>700 U) followed by further incubation at 37 °C for 30 min. The DNA was then extracted and
# 32 resolved in gel electrophoresis as described.
smiles,measurement,setting,value
"O=C(O)c1cn(C2CC2)c2cc(N3CCNCC3)c(F)cc2c1=O [CIP, ciprofloxacin, reference compound]",Sensitivity of hybrid complex to known bacterial gyrase inhibitors,EcA2PfB2 [1],sensitive
same,IC50,P. falciparum 3D7 [2],3 ± 0.5 µM
"O=c1c(O)cccc2cc(O)c(O)c(O)c12 [PPG, 3,9,10,11-tetrahydroxybicyclo[5.4.0]undeca-1(7),3,5,8,10-pentaen-2-one]",Effect on DNA-EcGyr complex,EcGyr [3],remained intact
same,PPG concentration at which formation of the DNA-PfB complex was inhibited,PfB [4],approximately 20 μM
same,IC50,EcGyr [5],> 1000 µM
same,Effect on DNA-enhanced ATP hydrolysis of PfB,"PfB [6]; 10.5 nM linear pBR322 DNA, 1 mM ATP",decreased this DNA-enhanced ATP hydrolysis of PfB in a dose-dependent manner
same,Effect on intrinsic ATPase activity of PfB,PfB [6]; no DNA,remained unchanged
same,IC50,EcA2PfB2 [1],9.56 ± 1.94 µM
same,IC50,P. falciparum 3D7 [7],92 ± 16 µM
same,Kd,PfB [8],~1.03 µM
same,PPG concentration at which the DNA-EcA2PfB2 complex was disrupted,EcA2PfB2 [9],10 µM
same,Effect on intrinsic and enhanced ATP hydrolysis by EcB in complex with EcA,EcGyr [10],little affected
same,Effect on ATPase activity of EcA2PfB2 in the absence of DNA,EcA2PfB2 [11]; 0.5 μM EcA2PfB2,decreased the ATPase activity in both the absence and presence of DNA
same,Effect on DNA-induced ATPase activity of EcA2PfB2,"EcA2PfB2 [11]; 0.5 μM EcA2PfB2, with DNA","inhibited the DNA-induced ATPase activity of EcA2PfB2, although this was more modest"
same,Kd,EcB,~4.54 µM
same,Linear DNA formation (cleavage complex stabilization),EcA2PfB2 [12],did not observe any linear DNA formation
"O=C1c2ccccc2C(=O)c2c1cc(S(=O)(=O)O)c(O)c2O [ARS, 1,2-dihydroxy-3-(oxysulfonyl)-9,10-anthracenedione]",IC50,EcGyr [5],> 100 µM
same,IC50,EcA2PfB2 [1],55.6 ± 6.74 µM
"CO[C@@H]1[C@@H](OC(N)=O)[C@@H](O)[C@H](Oc2ccc3c(O)c(NC(=O)c4ccc(O)c(CC=C(C)C)c4)c(=O)oc3c2C)OC1(C)C [Novobiocin, reference compound]",Sensitivity of hybrid complex to known bacterial gyrase inhibitors,EcA2PfB2 [1],sensitive

# — PMC8448092, “Inhibitory Compounds Targeting Plasmodium falciparum Gyrase B” (Antimicrobial Agents and Chemotherapy, 2021)
